# According to a melting point compilation (Tetko et al.; mined from patent text by program, amines drawn as free bases though some values may be those of a salt):
row,SMILES,melting point
1,Nc1ncnc2c1ncn2C1CC(C=Cc2ccccc2)C(CO)O1 (stereo not given),215 to 217 °C
2,COCCC(=O)OCC(=O)C1(O)CCC2C3CC(C)C4=CC(=O)C=CC4(C)C3C(O)CC21C (stereo not given),230 °C
3,O=C1Nc2cccc(Br)c2C(=O)N2CC[C@@H]12,182 to 183 °C
4,Cc1c(NC(=O)c2ccc(-c3ccc(F)cc3)cc2)ccc2cc(C(c3ccccc3)N3CCCC3)cnc12 (stereo not given),192 to 195 °C
5,CC(C)C(C(=O)O)N(Cc1cccnc1)S(=O)(=O)c1ccc(-c2ccc(NC(=O)c3cc4ccccc4o3)cc2)cc1 (stereo not given),261 to 262 °C
6,COc1ccc([C@@H]2O[C@@](O[Si](C)(C)C)(C(F)(F)F)[C@H](Cc3ccccc3)N2C(=O)OCc2ccccc2)cc1,41 to 42 °C
7,O=c1[nH]c2cc(C(F)(F)F)c([N+](=O)[O-])cc2n1-c1cc(Cl)cc(Br)c1O,262 to 264 °C
8,O=C(c1ccc(-c2ccc(NC(=S)Nc3ccccc3)cc2)o1)N1CCN2CCC1CC2,171 to 175 °C
9,O=P1(c2ccccc2)NCc2ccccc21 (stereo not given),177 to 180 °C
10,CC(C)Oc1cc(CCC(=O)O)n(Cc2ccc(C(F)(F)F)cc2Cl)n1,122 °C
11,O=C1CSCC(C(=O)O)N1 (stereo not given),152 to 153 °C
12,N#Cc1ccc(C=CC(=O)c2ccccc2N)cc1,126 to 128 °C
13,COC(=O)c1cccc(-c2nnc(-c3ccccc3N)cc2CCCO)c1,141 °C
14,COc1ccc(C2(Oc3c(F)c(F)c(F)c(F)c3F)CCN(C)CC2)cc1,70 to 80 °C
15,COC(=O)CCCc1cc2cc(Cl)ccc2n1S(=O)(=O)c1ccc(S(=O)(=O)N2CCOCC2)cc1,54 °C
16,Cc1c(NC(=O)c2ccc(OC[C@@H]3CCCO3)cc2)ccc2c1cc(CN1CCC(C)(O)CC1)n2C,210 °C
17,N#CCCNC(=O)c1cccc(-c2cccc(Oc3ccc(Cl)cc3)n2)c1,143 to 144 °C
18,CCOCCS(=O)(=O)N1CC[C@@H](C(=O)N(C)Cc2cc(C(F)(F)F)cc(C(F)(F)F)c2)[C@H](c2ccc(F)cc2C)C1 (relative stereo),151 to 153 °C
19,NC(=O)c1ccc(F)c2c1OCC(N(CCCc1c[nH]c3c(F)cc(F)cc13)CC1CC1)C2 (stereo not given),124 °C
20,Cc1ccc(-c2cc3cc(C(=O)O)ccc3o2)cc1,279 to 283 °C
21,COc1ccc(C(O)c2ccc(C(=O)N(C3CCCC3)C3CCCC3)cc2)cc1OC (stereo not given),137 to 138 °C
22,CCCc1ccc2c(=O)cc(C(=O)O)[nH]c2c1,> 240 °C
23,CC(=O)Oc1ccc(S(=O)(=O)c2cnc(C)nc2Nc2c(C)cc(C)cc2C)cc1,142 to 144 °C
24,CCc1cc(C2=CCN(CCCC(O)c3ccc(F)cc3)CC2)[nH]n1 (stereo not given),140 to 142 °C

row,SMILES,melting point
1,Cc1cc(C)cc(-c2cccc3ccccc23)c1,68 to 70 °C
2,Cc1ccc(-c2n[nH]c3c2CCCC3)cc1,57.4 to 59.9 °C
3,COC(=O)c1cccc(C=CC(=O)O)c1,189 to 190 °C
4,C[C@@H]1CNC[C@H](C)N1c1ncccn1,130 to 135 °C
5,COC(=O)[C@H]1C[C@H](NC(=O)c2cccc(CNC(=O)OC(C)(C)C)c2)c2c(Cl)cc(Cl)cc2N1 (relative stereo),222 to 223 °C
6,COc1ccc(COc2ccc(NC(C)=O)cc2C(=O)C=Cc2ccc(OCc3ccccc3)c(OCc3ccccc3)c2)cc1,145 to 146 °C
7,CCc1cc2c(c(Sc3ccccc3)cc(=O)n2Cc2ccc(-c3ccccc3-c3nnn(C(c4ccccc4)(c4ccccc4)c4ccccc4)n3)cc2)c(CC)n1,156 to 158 °C
8,CCCC1(CCC)c2cc(-c3nc4cc(C)ccc4o3)ccc2-c2cc(OC)c(-c3nc4cc(C)ccc4o3)cc21,240 to 248 °C
9,Fc1ccc2nc(Cl)c3nnc(C(F)(F)F)n3c2c1,135 to 138 °C
10,CCCCn1c2c(c3ccccc3c1=O)C(=O)c1cc3c(cc1-2)OCO3,200 to 201 °C
11,CC1(C(=O)O)CCCCC1O (stereo not given),97 °C
12,CS(=O)(=O)c1cc([N+](=O)[O-])c(C(=O)O)cc1N(CCBr)CCBr,174 to 176 °C
13,Oc1ccnc2ccc(Cl)cc12,274 to 275 °C
14,O=C1Nc2ccccc2C12COc1cc3c(cc12)CCCC3 (stereo not given),> 230 °C
15,Oc1ccc2c(c1)COc1cc3cc(O)ccc3cc1-2,231 to 233 °C
16,Cn1cnc(COc2nn3c(-c4ccccc4)nnc3cc2-c2ccccc2)c1,199 to 202 °C
17,CN1CC(N2CC(=O)NC2=O)CC2c3cccc4[nH]cc(c34)CC21 (stereo not given),295 to 297 °C
18,CCOc1csc(C2OC(=O)NC2=O)c1 (stereo not given),144 to 146 °C
19,N#Cc1c(N2CCN(C(=O)c3ccco3)CC2)c2cc(Cl)ccc2n(Cc2ccccc2)c1=O,221 °C
20,Cc1cccc(Nc2ccccc2C(=O)NO)c1C,124 to 125 °C
21,CCc1ccc(C#CC(C)N(O)C(N)=O)cc1 (stereo not given),142 to 144 °C
22,CC(=N)NN(C)C(=O)OC(C)(C)C,187 to 189 °C
23,CNC=C1C(=S)C(C)(C)OC1(C)C,115 to 117 °C
24,CC(C)(C)c1cc(Cn2nc(C=Cc3nn(Cc4cc(C(C)(C)C)c(O)c(C(C)(C)C)c4)c(=O)o3)oc2=O)cc(C(C)(C)C)c1O,263 °C

row,SMILES,melting point
1,Cc1cc(CCCCCOc2ccc(C3OC=CO3)cc2)on1,38 to 39 °C
2,Cc1cc2c(cc1NC(=O)c1cccc(I)c1C(=O)NC(C)C)OC(F)(F)C2(O)C(F)(F)F (stereo not given),144 to 146 °C
3,O=C(O)CCCCCCCCCCCCCCCCCCCO,86 °C
4,N#CNC(=S)Nc1cccc([N+](=O)[O-])c1,> 210 °C
5,CSc1ccc(/C=C/C2=CC(=O)C(C)(C)O2)cc1,98 to 99.5 °C
6,CCOC(=O)C=Cc1cc(Br)cc(Cc2cccnc2)c1,81 to 83 °C
7,CSc1ccc(-c2nc(SC)c(C#N)c(=O)n2-c2ccc(C(C)(C)C)cc2)cc1,233 to 236 °C
8,Cc1ccccc1-c1cn(C)cc(-c2ccccc2Cl)c1=O,87 to 91 °C
9,O=C(C=Cc1ccc(-c2ccc(O)cc2)cc1)NO,> 300 °C
10,COc1cccc(C(=O)c2ccc(F)cc2F)c1,50 to 52 °C
11,CN(Cc1ccco1)C1=N/C(=C\c2c[nH]c3ncc(Cl)cc23)C(=O)N1,315 °C
12,O=C1Nc2cccc(C(F)(F)F)c2C(=O)N2CCC[C@@H]12,176 to 178 °C
13,CCCC12CCC(c3ccc(C#N)c(F)c3)(CC1)CC2,63 °C
14,CS(=O)(=O)Cc1cnc2ccccc2c1Cl,202 to 204 °C
15,CC(C)(C)[Si](OCc1ccc([N+](=O)[O-])cc1)(c1ccccc1)c1ccccc1,80 to 81 °C
16,CCN1CN(c2ccc(Cl)cc2)c2ncccc2C1=O,100 to 101 °C
17,CC(=O)OCC1OC(n2ccc(=O)[nH]c2=O)C(OC(C)=O)C1OC(C)=O (stereo not given),129 to 130 °C
18,CCOC(=O)/C=C/c1cc(OCc2ccccc2)ccc1OCC,124 to 125 °C
19,CCCCc1ccc(C=Nc2ccc(C#N)cc2)cc1,38.1 to 38.7 °C
20,CC(C)(C)OC(=O)C(=NO)C1=Nc2ccc(Cl)cc2C(c2ccccc2F)=NC1,212 to 214 °C
21,COc1cc2c(cc1Nc1ncc(Cl)c(N[C@H]3[C@@H](C(N)=O)[C@@H]4C=C[C@H]3C4)n1)CCN(CC(=O)N1CCCC1)CC2,126 to 145 °C
22,CC(=O)NC(Cc1c[nH]c2ccccc12)C(=O)OCc1cc(C)cc(C)c1 (stereo not given),145 to 146 °C
23,O=S1(=O)c2cccc3cccc(c23)N1CCCN1CCN(c2cccc(F)c2)CC1,103 °C
24,CN1CC[C@@H](c2c(O)cc(O)c3c(=O)cc(-c4ccccc4Br)oc23)[C@@H]1CO,235 to 237 °C

row,SMILES,melting point
1,COc1cccc(NC(=O)[C@H](CC(=O)OC(C)(C)C)NC(=O)OCc2ccccc2)c1,68 to 69 °C
2,Cc1cc(C)c(Nc2nc(C)nc(OC3CCOC3)c2C)c(C)c1 (stereo not given),126 to 128 °C
3,Cn1c(O)nc2cc(Cn3ccnc3)ccc21,207 °C
4,COC(=O)c1cccc2[nH]c(-c3ccc(Cl)cc3)cc12,150 to 152 °C
5,O=C(O)C1=CS[C@@H]2/C(=C\c3cc4c(s3)CCN(Cc3ccccc3)C4)C(=O)N12,198 °C
6,O=C(Cl)N1CC(Oc2ccc(F)cc2Cl)C1,93 to 94 °C
7,CN(C)C1(c2ccccc2)CCC(CNC(=O)N2CCC(c3c[nH]c4ccc(Cl)cc34)CC2)CC1 (stereo not given),140 to 143 °C
8,Cc1cccc(NC(=O)NC2CN(C(=O)C(C)(C)C)c3ccccc3N(CC(=O)OCc3ccccc3)C2=O)c1 (stereo not given),136 to 140 °C
9,CC(C)c1cn2cccc(C=O)c2n1,70 to 72 °C
10,N#Cc1cccc2c(N)c([N+](=O)[O-])ccc12,260 to 262 °C
11,COc1ccc(CC(=O)NC(NC(Cc2ccccc2C)=NC#N)C(C)(C)C)cc1OC (stereo not given),153 to 155 °C
12,O=C(CCl)Nc1ccc(Sc2ccc([N+](=O)[O-])cc2)cc1,217 to 219 °C
13,CN(C)C=Cc1cccnc1C#N,71.5 to 72 °C
14,COc1cc2c(cc1OCc1ccccc1)[nH]c1cc(-c3ccccc3Cl)c3c(c12)C(=O)NC3=O,260 to 264 °C
15,CC(C)(C)OC(=O)[C@@H]1CS[C@H](c2ccccc2)N1C(=O)CNC(=O)Nc1cccc(CC(=O)O)c1,140 °C
16,"CC(NC(=O)C1CC(=O)c2cc(F)ccc2O1)c1ccccc1 (single isomer, unassigned; (+))",140 °C
17,CC(c1oc2ccccc2c(=O)c1-c1cccc(F)c1)n1nc(-c2ccc(Cl)s2)c2c(N)ncnc21 (stereo not given),226 to 229 °C
18,CN1CCN(c2cccc3ccc(C(O)c4ccccc4)cc23)CC1 (stereo not given),162 to 163 °C
19,CN(Cc1cc2c3c(c1)c(=O)c(C(=O)NCc1ccc(F)cc1)cn3CC(=O)N2C)C[C@@H](O)c1ccco1,150 to 152 °C
20,Cc1nc(NC(=O)c2cnn3c(C(F)(F)F)cc(-c4ccc(C(F)(F)F)c(OCC(F)(F)F)c4)nc23)sc1S(=O)(=O)NC(C)(C)CO,275 °C
21,c1ccc(CCc2[nH]ncc2-c2ccncc2)cc1,125 to 131 °C
22,O=P1(Oc2c(Cl)cc(Cl)cc2Cl)OCC2(CO1)COP(=O)(Oc1c(Cl)cc(Cl)cc1Cl)OC2 (stereo not given),283 °C
23,CN(C)CCCn1c(=O)c2c(N)c3c(=O)c4ccccc4c(=O)c3c(N)c2c1=O,215 to 216 °C
